Assay results: patent publication US20240307365A1, “Pharmaceutical Composition for Preventing or Treating Systemic Sclerosis” (Daewoong Pharmaceutical Co., Ltd., priority 2021, published 2024)
Several values for one entry are separate records, joined by “and”; a condition that tells them apart may be missing. Equal values may be shown once.

Columns and labels:
[1] = test system: systemic sclerosis-associated interstitial lung disease (SSc-ILD) mouse model administered with BLM; experiment: SSc-ILD bleomycin osmotic pump mouse model: skin thickness (H&E, MT stain); assay type: in vivo, C57BL/6 mice; conditions: day 28; for Skin thickness: individual animals 1-9
Source text: (§1) Seven-week-old C57BL/6 mice were obtained and acclimatized indoors for 5 days or more. For the systemic sclerosis-related interstitial lung disease model, an osmotic pump injection model was designed. For that reason, if it is not modeling using an osmotic pump, it is a model in which BLM should be injected subcutaneously into the back of the test animal every day for 4 weeks, and this is because these tests can cause very extreme pain at the site of administration.
(§2) The incision site was sutured, an osmotic pump was inserted, bleomycin was administered for 1 week, and then the osmotic pump was removed on the 10th day. It was confirmed that systemic sclerosis-associated interstitial lung disease was induced in a mouse model administered with BLM for 1 week, and specific experimental groups are shown in Table 1 below.
On the day 28, skin tissues were extracted from mice and subjected to H&E and Mansson's Trichrome (MT stain). The skin thickness of 10 sites was measured randomly through the image of the photograph in which stain progressed (progressed at a minimum interval of 200˜300 um). The entire area of the photograph was measured as evenly as possible, and the areas where the stain tissue was damaged were excluded from the measurement.

[2] = test system: systemic sclerosis-associated interstitial lung disease (SSc-ILD) mouse model administered with BLM; experiment: SSc-ILD bleomycin osmotic pump mouse model: body weight (%); assay type: in vivo, C57BL/6 mice; conditions: for Body weight (%) change: individual animals 1-9
Source text: as §1, §2

[3] = test system: systemic sclerosis-associated interstitial lung disease (SSc-ILD) mouse model administered with BLM; experiment: SSc-ILD bleomycin osmotic pump mouse model: collagen content (hydroxyproline) in skin tissue; assay type: in vivo, C57BL/6 mice; conditions: for hydroxyproline value, ratio compared to a normal group: skin tissue, individual animals 1-9
Source text: as §1, §2
An attempt was made to measuring the amount of hydroxyproline in the mouse and thus indirectly measure the collagen content. Analysis was performed using INSOLUBLE Collagen Assay (Biocolor, S2000), and the details are as follows.
First, 10 mg of frozen skin tissue was pulverized with 100 ul of fragmentation reagent. 100 ul of 37% HCl was added and incubated at 65° C. for 3 hours. The contents of the tube were shaken at 30 minute intervals to aid tissue disintegration. Centrifugation was performed at 12,000 rpm for 10 minutes. After centrifugation, it was transferred to a 1.5 ml tube. 50 ul was taken from a sample between 10 and 100 ul, distilled water was added, and the sample was prepared so as to match with 100 ul.
1 ml of dye was added to 100 ul of the prepared sample, and mixed for 30 minutes. The mixture was centrifuged at 12,000 rpm for 10 minutes, and then transferred to a new tube. The dye was removed with 750 ul of ice-cold acid-salt wash reagent. After centrifugation at 12,000 rpm for 10 minutes, it was transferred to a new tube. The tube was mixed with the collagen-binding dye using a vortex mixer, and gollagen binding dye was dissolved within 10 minutes to complete the measurement preparation (measurement should be completed within 2˜3 hours). The tube cap was closed until it was ready to measure absorbance.
200 ul of each sample was transferred to an individual well of a 96 micro-well plate, and the absorbance was measured at 560 nm.

[4] = test system: 3D skin organoid prepared using iPSC-derived fibroblasts from patients with systemic dermatosis; experiment: Skin hardening alleviation in 3D skin organoid model (thickness by H&E staining); assay type: cell-based; conditions: 1 μM in DMSO solution, control DMSO only (FIG. 1)
Procedure: A 3D skin organoid was prepared using iPSC-derived fibroblasts from patients with systemic dermatosis according to the method described in the literature (Lancet. 2009 Nov. 21;374(9703):1745-53). When 1 μM of active ingredient was treated with DMSO solution, it was confirmed through H&E immunochemical staining that the thickness of the 3D skin organoid was reduced (FIG. 1). The control group was treated with only DMSO.

[5] = test system: systemic sclerosis-associated interstitial lung disease (SSc-ILD) mouse model administered with BLM; experiment: SSc-ILD bleomycin osmotic pump mouse model: lung weight; assay type: in vivo, C57BL/6 mice; design: Lung weight: unit not given here; conditions: for Lung weight: individual animals 1-9, unit not given
Source text: as §1, §2

[6] = test system: mouse model of systemic scleroderma skin organoid transplantation; experiment: Skin hardening alleviation in 3D skin organoid transplantation mouse model (skin thickness, fibrosis factors by immunochemical staining); assay type: in vivo, SCID mice; conditions: daily for 2 weeks
Source text: The previously constructed 3D skin organoid derived from the systemic scleroderma patient iPSC was transplanted into SCID mice to construct a mouse model of systemic scleroderma. The mouse skin tissue was cut into 1×2 cm, and then 3D skin organoid skin tissue was sutured to the mouse skin. For a skin transplantation method, it was transplanted to mice or the like using a tie-over dressing method used clinically. After placing a gauze on the suture site, it was tied with a suture and dressed with a band.
The active ingredient was subcutaneously administered at a dose of 3 mg/kg and 10 mg/kg daily for 2 weeks to a mouse model of systemic scleroderma skin organoid transplantation. For the negative control group (NC), a physiological saline was administered to a normal skin tissue, and for the positive control group (SSc), a physiological saline was administered to a systemic scleroderma skin organoid transplanted skin tissue. The skin thickness, which is the primary evaluation index of systemic scleroderma, was measured through immunochemical staining, and the results are shown in FIG. 2.
To confirm whether the fibrosis factor is reduced in systemic scleroderma skin tissue by the active ingredient, immunochemical staining was performed and the results are shown in FIG. 3.

[7] = test system: systemic sclerosis-associated interstitial lung disease (SSc-ILD) mouse model administered with BLM; experiment: SSc-ILD bleomycin osmotic pump mouse model: lung function evaluation (SpO2); assay type: in vivo, C57BL/6 mice
Source text: as §1, §2
This lung function evaluation is an experiment to show the therapeutic effect of this active substance in patients with systemic sclerosis-associated interstitial lung diseases, and is the most direct and important evaluation index that has the greatest influence on the symptoms and quality of life of patients with systemic sclerosis-associated interstitial lung diseases, unlike the general pulmonary fibrosis ameliorating effect. This is an experiment that can most directly show the effect of improving lung function in an animal model of systemic sclerosis-associated interstitial lung disease by measuring the oxygen concentration in the body.
On the 21st day, it was measured with a SpO2 measuring device (Berry, Veterinary Pulse Oximeter) via the abdominal side of the mouse, and the results are shown in Table 5 and FIG. 3.

[8] = 3 and 10 mg/kg subcutaneous, immunochemical staining, *p<0.05, ***p<0.001 (FIG. 3)

SMILES: O[C@H]1CCCN[C@@H]1CCCn1cnc2c(Cl)c(Cl)ccc21 [Active ingredient]
- density of collagen in the skin (MT stain) ([1]; 3 mg/kg oral): tendency to decrease
- skin thickness, significance ([1]; 3 mg/kg oral): did not significantly decrease
- Skin thickness ([1]; 3 mg/kg oral): 809.254 μm and 771.562 μm and 778.660 μm and 688.725 μm and 759.037 μm and 677.319 μm and 744.986 μm and 904.141 μm and 641.841 μm
- skin thickness improvement effect compared with 60 mg/kg of nintedanib ([1]; 10 mg/kg oral): superior
- Skin thickness ([1]; 10 mg/kg oral): 526.170 μm and 521.027 μm and 425.415 μm and 456.862 μm and 672.616 μm and 593.826 μm and 601.558 μm and 809.106 μm and 708.308 μm
- skin thickness, significance ([1]; 30 mg/kg oral, P<0.0001 or less): very significant results
- Skin thickness ([1]; 30 mg/kg oral): 475.515 μm and 412.271 μm and 525.311 μm and 593.963 μm and 526.388 μm and 443.336 μm and 601.558 μm and 558.530 μm and 479.961 μm
- collagen density in the skin (MT stain) ([1]; active ingredient administered as a whole): decreased
- skin thickness, significance ([1]; from 10 mg/kg oral): significant results
- Body weight (%) change ([2]; 3 mg/kg oral, 28 days): −2.45% and −2.14% and 1.34% and −0.33% and −1.93% and 8.65% and 3.02% and −0.36% and 1.07%
- Body weight (%) change ([2]; 10 mg/kg oral, 28 days): 4.62% and 2.54% and 1.96% and −4.1% and −2.48% and 0.48% and 0.14% and 4.88% and 4.78%
- Body weight (%) change ([2]; 30 mg/kg oral, 28 days): 12.09% and 7.78% and 2.13% and 2.34% and 1.45% and 9.52% and 5.35% and −2.86% and 7.57%
- body weight compared to the vehicle ([2]; 30 mg/kg oral, 28 days, p<0.01): significantly increased
- changes in body weight, significance ([2]; from 3 mg/kg oral, 28 days): significant results
- hydroxyproline value, ratio compared to a normal group ([3]; 3 mg/kg oral): 1.51 (2×) and 1.96 and 1.66 and 1.94 and 1.85 and 1.74 and 1.57 and 2.01
- hydroxyproline value, ratio compared to a normal group ([3]; 10 mg/kg oral): 2.27 and 2.26 (2×) and 1.70 and 1.93 and 1.57 and 2.16 and 1.82 and 2.10
- amount of hydroxyproline in the skin, significance ([3]; 30 mg/kg oral, P<0.001 or less): very significant result
- hydroxyproline value, ratio compared to a normal group ([3]; 30 mg/kg oral): 1.70 and 1.48 and 1.81 and 2.04 and 2.09 (2×) and 1.75 and 1.77 and 1.28
- amount of hydroxyproline in the skin, significance ([3]; from 10 mg/kg oral): significant results
- thickness of the 3D skin organoid [4]: reduced
- Lung weight ([5]; 3 mg/kg oral): 1.01 and 1.14 (2×) and 1.08 (2×) and 0.98 (2×) and 1.15 and 0.92
- Lung weight ([5]; 10 mg/kg oral): 0.98 and 1.22 and 1.14 and 1.12 and 0.95 and 1.16 and 0.99 and 0.93 and 1.08
- change in lung weight corrected by body weight, significance ([5]; 30 mg/kg oral): significance increased to p<0.01
- Lung weight ([5]; 30 mg/kg oral): 1.10 and 0.99 and 0.90 and 0.98 (2×) and 1.03 and 0.94 and 1.09 and 0.97
- change in lung weight corrected by body weight, significance ([5]; from 10 mg/kg oral): showed a significance
- change in lung weight, significance ([5]; only at 30 mg/kg oral): significant tendency
- thickness of the skin tissue ([6]; 3 mg/kg and 10 mg/kg subcutaneous, ***p<0.001 (FIG. 2)): significantly reduced
- fibrotic factor Collagen I in skin tissue [6, 8]: significantly reduced
- fibrotic factor Collagen III in skin tissue [6, 8]: significantly reduced
- fibrotic factor aSMA in skin tissue [6, 8]: significantly reduced
- oxygen saturation recovery rate versus nintedanib (60 mg/kg) group ([7]; 30 mg/kg oral, day 21): comparable to that of nintedanib
- SpO2 (oxygen saturation) compared with the vehicle ([7]; 30 mg/kg oral, day 21, p<0.001): higher oxygen saturation
- SpO2 (oxygen saturation), significance ([7]; from 10 mg/kg oral, day 21 (FIG. 7)): significant results

SMILES: COC(=O)c1ccc2c(c1)NC(=O)/C2=C(\Nc1ccc(N(C)C(=O)CN2CCN(C)CC2)cc1)c1ccccc1 [NIN, Nintedanib, reference compound]
- Skin thickness ([1]; nintedanib 60 mg/kg oral): 675.558 μm and 623.019 μm and 651.831 μm and 660.809 μm and 649.479 μm and 620.302 μm and 651.572 μm and 856.355 μm and 664.973 μm
- Body weight (%) change ([2]; nintedanib 60 mg/kg oral): −0.45% and 0.58% and 8.79% and 0.44% and −2.94% and 2.46% and 4.14% and 1.78% and 4.49%
- hydroxyproline value, ratio compared to a normal group ([3]; nintedanib 60 mg/kg oral): 1.34 and 1.83 and 1.63 and 1.53 and 1.08 and 1.37 and 1.43 and 1.65 and 1.45
- Lung weight ([5]; nintedanib 60 mg/kg oral): 0.96 and 0.99 (2×) and 1.04 and 0.95 and 1.01 and 0.98 and 1.16 and 0.89
